≈ marks a conversion by molar mass, not a printed value.
Experiments:
E. coli Neumann = experiment: Minimum inhibitory concentration (MIC), serial dilution on Iso-Sensitest Agar; assay type: cell-based; settings: Escherichia coli, 37° C., about 20 hours
Procedure: (§1) In the following Tables 9 and 10, the minimum inhibitory concentration are shown as a measure of the antibacterial activity and the ID50 values as a measure of the interactions with mammalian DNA of a substance both for compounds according to the invention and for reference compounds from the prior art (EP 520 240).
(§2) The minimum inhibitory concentration (MIC) were determined by a serial dilution method on Iso-Sensitest Agar (Oxoid). For each test substance, a number of agar plates were prepared which, with doubled dilution in each case, contained decreasing concentrations of the active compound. The agar plates were inoculated using a multipoint inoculator (Denley). For inoculation, overnight cultures of the pathogens were used which had previously been diluted such that each inoculation point contained about […] colony-forming particles. The inoculated agar plates were incubated at 37° C. and the microorganism growth was read off after about 20 hours. The MIC value (μg/ml) indicates the lowest active compound concentration at which no growth could be detected using the naked eye.

Staph. aureus ICB 25701 = experiment: as above; assay type: cell-based; settings: Staphylococcus aureus, ICB25701, 37° C., about 20 hours
Procedure: as §1, §2

[1] = Inhibition of DNA synthesis in CHO-KI cells (interaction with mammalian DNA), fluorophotometric; assay type: cell-based, Chinese hamster; settings: hamster, cho-k1 cells; concentration at which DNA synthesis in CHO-KI cells is inhibited by 50%; read-out: ID50 (the source's name)
Description: as §1
ID50 is understood as meaning the concentration of a substance at which the DNA synthesis in cells from ovaries of the Chinese hamster (CHO-KI) is inhibited by 50%. This value is determined over defined time intervals in decreasing dilution steps after incubation of the appropriate substances. To do this, the DNA synthesis in CHO-KI cells is determined in comparison to controls by means of fluorophotometric methods.

Staph. aureus 133 = experiment: Minimum inhibitory concentration (MIC), serial dilution on Iso-Sensitest Agar; assay type: cell-based; settings: Staphylococcus aureus, 37° C., about 20 hours
Procedure: as §2

Bac. fragilis ES 25 = experiment: as above; assay type: cell-based; settings: Bacteroides fragilis, ES25, 37° C., about 20 hours
Procedure: as §2

Ps. aeruginosa Walter = experiment: as above; assay type: cell-based; settings: Pseudomonas aeruginosa, 37° C., about 20 hours
Procedure: as §2

COc1c(N2CC3C=CC=CC3(N)C2)c(F)cc2c(=O)c(C(=O)O)cn(C3CC3)c12 (stereo not drawn) [Example 4, 7-(3a-amino-1,2,3,7a-tetrahydro-isoindolo2-yl)-1-cyclopropyl-6-fluoro-1,4-dihydro-8-methoxy-4-oxo-3-quinolinecarboxylic acid]
MIC (E. coli Neumann): ≤ 0.015 µg/mL
MIC (Staph. aureus ICB 25701): 0.5 µg/mL (≈ 1.22 µM)
IC50 [1]: > 64 µg/mL
MIC (Staph. aureus 133): ≤ 0.015 µg/mL
MIC (Bac. fragilis ES 25): 2 µg/mL (≈ 4.86 µM)
MIC (Ps. aeruginosa Walter): 0.5 µg/mL (≈ 1.22 µM)

COc1c(N2CC3C(C)C=CC(N)C3C2)c(F)cc2c(=O)c(C(=O)O)cn(C3CC3)c12 (stereo not drawn) [Ref. 2, 7(4-Amino-7-methyl-1,3,3a,4,7,7a-hexahydro-isoindol-2-yl)-1-cyclopropyl-6 fluoro-1,4-dihydro-8-methoxy-4-oxo-3-quinolinecarboxylic acid, reference compound]
MIC (E. coli Neumann): 0.015 µg/mL (≈ 0.0351 µM)
MIC (Staph. aureus ICB 25701): 0.015 µg/mL (≈ 0.0351 µM)
IC50 [1]: 0.1 µg/mL (≈ 0.234 µM)
MIC (Staph. aureus 133): 0.015 µg/mL (≈ 0.0351 µM)
MIC (Bac. fragilis ES 25): 0.25 µg/mL (≈ 0.585 µM)
MIC (Ps. aeruginosa Walter): 1 µg/mL (≈ 2.34 µM)

CC1C=CC(N)C2CN(c3c(F)cc4c(=O)c(C(=O)O)cn(C5CC5)c4c3F)CC12 (stereo not drawn) [Ref. 1, 7(4-Amino-7-methyl-1,3,3a,4,7,7a-hexahydro-isoindol-2-yl)-1-cyclopropyl-6 8-difluoro-1,4-dihydro-4-oxo-3-quinolinecarboxylic acid, reference compound]
MIC (E. coli Neumann): 0.015 µg/mL (≈ 0.0361 µM)
MIC (Staph. aureus ICB 25701): 0.06 µg/mL (≈ 0.144 µM)
IC50 [1]: 0.015 µg/mL (≈ 0.0361 µM)
MIC (Staph. aureus 133): 0.015 µg/mL (≈ 0.0361 µM)
MIC (Bac. fragilis ES 25): 0.5 µg/mL (≈ 1.2 µM)
MIC (Ps. aeruginosa Walter): 0.5 µg/mL (≈ 1.2 µM)

NC12C=CC=CC1CN(c1c(F)cc3c(=O)c(C(=O)O)cn(C4CC4)c3c1F)C2 (stereo not drawn) [Example 2, 7-(3a-amino-1,2,3,7a-tetrahydroisoindol-2-yl)-1-cyclopropyl-6,8-difluoro-1,4-dihydro-4-oxo-3-quinolinecarboxylic acid]
MIC (E. coli Neumann): ≤ 0.015 µg/mL
MIC (Staph. aureus ICB 25701): 2 µg/mL (≈ 5.01 µM)
IC50 [1]: 32 µg/mL (≈ 80.1 µM)
MIC (Staph. aureus 133): 0.06 µg/mL (≈ 0.15 µM)
MIC (Bac. fragilis ES 25): 1 µg/mL (≈ 2.5 µM)
MIC (Ps. aeruginosa Walter): 1 µg/mL (≈ 2.5 µM)

NC12C=CC=CC1CN(c1c(F)cc3c(=O)c(C(=O)O)cn([C@@H]4C[C@@H]4F)c3c1F)C2 (stereo partly drawn) [Example 8, 7-(3a-amino-1,2,3,7a-tetrahydro-isoindol-2-yl)-6,8-difluoro-1-(cis-2-fluorocydopropyl)-1,4-dihydro-4-oxo-3-quinolineearboxylic acid]
MIC (E. coli Neumann): ≤ 0.015 µg/mL
MIC (Staph. aureus ICB 25701): 0.5 µg/mL (≈ 1.2 µM)
IC50 [1]: 16 µg/mL (≈ 38.3 µM)
MIC (Staph. aureus 133): 0.03 µg/mL (≈ 0.0719 µM)
MIC (Bac. fragilis ES 25): 0.5 µg/mL (≈ 1.2 µM)
MIC (Ps. aeruginosa Walter): 0.5 µg/mL (≈ 1.2 µM)

NC12C=CC=CC1CN(c1c(F)cc3c(=O)c(C(=O)O)cn(C4CC4)c3c1Cl)C2 (stereo not drawn) [Example 3, 7-(3a-amino-1,2,3,7a-tetrahydro-isoindol-2-yl)-8-chloro-1-cyclopropyl-6-fluoro-1,4-dihydro-4-oxo-3-quinolineearboxylic acid]
MIC (E. coli Neumann): ≤ 0.015 µg/mL
MIC (Staph. aureus ICB 25701): 0.25 µg/mL (≈ 0.601 µM)
IC50 [1]: 32 µg/mL (≈ 77 µM)
MIC (Staph. aureus 133): ≤ 0.015 µg/mL
MIC (Bac. fragilis ES 25): 0.125 µg/mL (≈ 0.301 µM)
MIC (Ps. aeruginosa Walter): 0.5 µg/mL (≈ 1.2 µM)

CC1C=CC(N)C2CN(c3c(F)cc4c(=O)c(C(=O)O)cn(C5CC5)c4c3Cl)CC12 (stereo not drawn) [Ref. 3, 7(4-Amino-7-methyl-1,3,3a,4,7,7a-hexahydro-isoindol-2-yl)-8-chloro-1-cycl propyl-6-fluoro-1,4-dihydro-4-oxo-3-quinolinecarboxylic acid, reference compound]
MIC (E. coli Neumann): 0.015 µg/mL (≈ 0.0347 µM)
MIC (Staph. aureus ICB 25701): 0.015 µg/mL (≈ 0.0347 µM)
IC50 [1]: 0.1 µg/mL (≈ 0.232 µM)
MIC (Staph. aureus 133): 0.015 µg/mL (≈ 0.0347 µM)
MIC (Bac. fragilis ES 25): 0.125 µg/mL (≈ 0.289 µM)
MIC (Ps. aeruginosa Walter): 0.5 µg/mL (≈ 1.16 µM)

NC12C=CC=CC1CN(c1nc3c(cc1F)c(=O)c(C(=O)O)cn3C1CC1)C2 (stereo not drawn) [Example 9, 7-(3a-amino-1,2,3,7a-tetrahydro-isoindol-2-yl)-1-cyclopropyl-6-fluoro-1,4-dihydro-4-oxo-1,8-naphthyridine-3-carboxylic acid]
MIC (E. coli Neumann): ≤ 0.015 µg/mL
MIC (Staph. aureus ICB 25701): 8 µg/mL (≈ 20.9 µM)
IC50 [1]: 32 µg/mL (≈ 83.7 µM)
MIC (Staph. aureus 133): 0.06 µg/mL (≈ 0.157 µM)
MIC (Bac. fragilis ES 25): 4 µg/mL (≈ 10.5 µM)
MIC (Ps. aeruginosa Walter): 1 µg/mL (≈ 2.62 µM)
